Measured values as given in the NIST ThermoML archive (doi:10.1016/j.fluid.2018.07.028).
Numbers after ± are expanded uncertainties.

Assay: activity coefficient (dimensionless); of the first substance listed, at infinite dilution; xn = mol fraction of the nth substance listed
Conditions: 101.33 kPa, Liquid, Chromatography, x1 = 0

Compound | activity coefficient (358.15 K) | activity coefficient (368.15 K) | activity coefficient (378.15 K) | activity coefficient (388.15 K) | activity coefficient (398.15 K) | activity coefficient (408.15 K)
C1CCCCCCC1 [cyclooctane] + CCCC[P+](CCCC)(CCCC)CCCC.O=S(=O)([N-]S(=O)(=O)C(F)(F)F)C(F)(F)F | 4.08 ± 0.28 | 4.04 ± 0.28 | 4 ± 0.27 | 3.97 ± 0.27 | 3.94 ± 0.27 | 3.91 ± 0.27
C1CCCC1 [cyclopentane] + CCCC[P+](CCCC)(CCCC)CCCC.O=S(=O)([N-]S(=O)(=O)C(F)(F)F)C(F)(F)F | 2.33 ± 0.16 | 2.35 ± 0.16 | 2.37 ± 0.16 | 2.38 ± 0.16 | 2.4 ± 0.16 | 2.42 ± 0.16
CCCCCCCCCC [decane] + CCCC[P+](CCCC)(CCCC)CCCC.O=S(=O)([N-]S(=O)(=O)C(F)(F)F)C(F)(F)F | 10.4 ± 0.7 | 10.1 ± 0.7 | 9.88 ± 0.67 | 9.67 ± 0.66 | 9.47 ± 0.65 | 9.29 ± 0.63
CCOCC [diethyl ether] + CCCC[P+](CCCC)(CCCC)CCCC.O=S(=O)([N-]S(=O)(=O)C(F)(F)F)C(F)(F)F | 1.65 ± 0.11 | 1.7 ± 0.11 | 1.76 ± 0.12 | 1.8 ± 0.12 | 1.86 ± 0.13 | 1.91 ± 0.13
CC(C)OC(C)C [diisopropyl ether] + CCCC[P+](CCCC)(CCCC)CCCC.O=S(=O)([N-]S(=O)(=O)C(F)(F)F)C(F)(F)F | 2.88 ± 0.2 | 2.94 ± 0.2 | 3 ± 0.2 | 3.05 ± 0.21 | 3.11 ± 0.21 | 3.17 ± 0.22
CCCOCCC [dipropyl ether] + CCCC[P+](CCCC)(CCCC)CCCC.O=S(=O)([N-]S(=O)(=O)C(F)(F)F)C(F)(F)F | 2.73 ± 0.19 | 2.78 ± 0.19 | 2.83 ± 0.19 | 2.88 ± 0.2 | 2.93 ± 0.2 | 2.98 ± 0.2
CCO [ethanol] + CCCC[P+](CCCC)(CCCC)CCCC.O=S(=O)([N-]S(=O)(=O)C(F)(F)F)C(F)(F)F | 1.42 ± 0.09 | 1.36 ± 0.09 | 1.31 ± 0.09 | 1.26 ± 0.08 | 1.22 ± 0.08 | 1.18 ± 0.08
CCOC(C)=O [ethyl acetate] + CCCC[P+](CCCC)(CCCC)CCCC.O=S(=O)([N-]S(=O)(=O)C(F)(F)F)C(F)(F)F | 0.835 ± 0.054 | 0.869 ± 0.056 | 0.905 ± 0.057 | 0.939 ± 0.059 | 0.975 ± 0.061 | 1.01 ± 0.063
CCc1ccccc1 [ethylbenzene] + CCCC[P+](CCCC)(CCCC)CCCC.O=S(=O)([N-]S(=O)(=O)C(F)(F)F)C(F)(F)F | 1.49 ± 0.1 | 1.54 ± 0.1 | 1.58 ± 0.1 | 1.63 ± 0.11 | 1.67 ± 0.11 | 1.71 ± 0.11
CCCCCCC [heptane] + CCCC[P+](CCCC)(CCCC)CCCC.O=S(=O)([N-]S(=O)(=O)C(F)(F)F)C(F)(F)F | 5.4 ± 0.37 | 5.38 ± 0.37 | 5.37 ± 0.37 | 5.35 ± 0.36 | 5.34 ± 0.36 | 5.33 ± 0.36
C=CCCCC [hex-1-ene] + CCCC[P+](CCCC)(CCCC)CCCC.O=S(=O)([N-]S(=O)(=O)C(F)(F)F)C(F)(F)F | 3.15 ± 0.21 | 3.2 ± 0.22 | 3.24 ± 0.22 | 3.28 ± 0.22 | 3.32 ± 0.23 | 3.35 ± 0.23
CCCCCC [hexane] + CCCC[P+](CCCC)(CCCC)CCCC.O=S(=O)([N-]S(=O)(=O)C(F)(F)F)C(F)(F)F | 4.39 ± 0.3 | 4.41 ± 0.3 | 4.44 ± 0.3 | 4.46 ± 0.3 | 4.49 ± 0.31 | 4.51 ± 0.31
CC(C)c1ccccc1 [isopropylbenzene] + CCCC[P+](CCCC)(CCCC)CCCC.O=S(=O)([N-]S(=O)(=O)C(F)(F)F)C(F)(F)F | 1.92 ± 0.13 | 1.97 ± 0.13 | 2.02 ± 0.14 | 2.07 ± 0.14 | 2.12 ± 0.14 | 2.17 ± 0.15
CO [methanol] + CCCC[P+](CCCC)(CCCC)CCCC.O=S(=O)([N-]S(=O)(=O)C(F)(F)F)C(F)(F)F | 1.28 ± 0.08 | 1.23 ± 0.08 | 1.18 ± 0.08 | 1.14 ± 0.07 | 1.1 ± 0.07 | 1.06 ± 0.07
CCCC(=O)OC [methyl butanoate] + CCCC[P+](CCCC)(CCCC)CCCC.O=S(=O)([N-]S(=O)(=O)C(F)(F)F)C(F)(F)F | 0.946 ± 0.06 | 0.989 ± 0.062 | 1.03 ± 0.06 | 1.08 ± 0.07 | 1.12 ± 0.07 | 1.17 ± 0.07
COC(C)=O [methyl ethanoate] + CCCC[P+](CCCC)(CCCC)CCCC.O=S(=O)([N-]S(=O)(=O)C(F)(F)F)C(F)(F)F | 0.753 ± 0.05 | 0.785 ± 0.051 | 0.816 ± 0.053 | 0.847 ± 0.054 | 0.878 ± 0.056 | 0.909 ± 0.058

Compound | activity coefficient (358.15 K) | activity coefficient (368.15 K) | activity coefficient (378.15 K) | activity coefficient (388.15 K) | activity coefficient (398.15 K) | activity coefficient (408.15 K)
CCC(=O)OC [methyl propanoate] + CCCC[P+](CCCC)(CCCC)CCCC.O=S(=O)([N-]S(=O)(=O)C(F)(F)F)C(F)(F)F | 0.82 ± 0.053 | 0.857 ± 0.055 | 0.894 ± 0.057 | 0.931 ± 0.059 | 0.967 ± 0.061 | 1 ± 0.06
CC1CCCCC1 [methylcyclohexane] + CCCC[P+](CCCC)(CCCC)CCCC.O=S(=O)([N-]S(=O)(=O)C(F)(F)F)C(F)(F)F | 3.5 ± 0.24 | 3.49 ± 0.24 | 3.48 ± 0.24 | 3.48 ± 0.24 | 3.47 ± 0.24 | 3.46 ± 0.24
CCCCCCCCC [nonane] + CCCC[P+](CCCC)(CCCC)CCCC.O=S(=O)([N-]S(=O)(=O)C(F)(F)F)C(F)(F)F | 8.31 ± 0.57 | 8.15 ± 0.56 | 8.01 ± 0.55 | 7.87 ± 0.54 | 7.74 ± 0.53 | 7.62 ± 0.52
C=CCCCCCC [oct-1-ene] + CCCC[P+](CCCC)(CCCC)CCCC.O=S(=O)([N-]S(=O)(=O)C(F)(F)F)C(F)(F)F | 4.9 ± 0.33 | 4.92 ± 0.34 | 4.94 ± 0.34 | 4.96 ± 0.34 | 4.98 ± 0.34 | 5.01 ± 0.34
CCCCCCCC [octane] + CCCC[P+](CCCC)(CCCC)CCCC.O=S(=O)([N-]S(=O)(=O)C(F)(F)F)C(F)(F)F | 6.69 ± 0.46 | 6.62 ± 0.45 | 6.56 ± 0.45 | 6.5 ± 0.44 | 6.44 ± 0.44 | 6.39 ± 0.44
CCCCCO [pentan-1-ol] + CCCC[P+](CCCC)(CCCC)CCCC.O=S(=O)([N-]S(=O)(=O)C(F)(F)F)C(F)(F)F | 1.81 ± 0.12 | 1.76 ± 0.12 | 1.71 ± 0.11 | 1.67 ± 0.11 | 1.63 ± 0.11 | 1.59 ± 0.11
CCCC(C)=O [pentan-2-one] + CCCC[P+](CCCC)(CCCC)CCCC.O=S(=O)([N-]S(=O)(=O)C(F)(F)F)C(F)(F)F | 0.62 ± 0.043 | 0.651 ± 0.045 | 0.682 ± 0.046 | 0.714 ± 0.048 | 0.744 ± 0.049 | 0.774 ± 0.051
CCC(=O)CC [pentan-3-one] + CCCC[P+](CCCC)(CCCC)CCCC.O=S(=O)([N-]S(=O)(=O)C(F)(F)F)C(F)(F)F | 0.629 ± 0.043 | 0.66 ± 0.045 | 0.69 ± 0.05 | 0.721 ± 0.048 | 0.75 ± 0.049 | 0.781 ± 0.051
CCCCC [pentane] + CCCC[P+](CCCC)(CCCC)CCCC.O=S(=O)([N-]S(=O)(=O)C(F)(F)F)C(F)(F)F | 3.61 ± 0.25 | 3.62 ± 0.25 | 3.65 ± 0.25 | 3.66 ± 0.25 | 3.68 ± 0.25 | 3.7 ± 0.25
CCCO [propan-1-ol] + CCCC[P+](CCCC)(CCCC)CCCC.O=S(=O)([N-]S(=O)(=O)C(F)(F)F)C(F)(F)F | 1.53 ± 0.1 | 1.47 ± 0.1 | 1.42 ± 0.09 | 1.37 ± 0.09 | 1.32 ± 0.09 | 1.28 ± 0.08
CC(C)O [propan-2-ol] + CCCC[P+](CCCC)(CCCC)CCCC.O=S(=O)([N-]S(=O)(=O)C(F)(F)F)C(F)(F)F | 1.47 ± 0.1 | 1.42 ± 0.09 | 1.37 ± 0.09 | 1.33 ± 0.09 | 1.29 ± 0.08 | 1.26 ± 0.08
CCCc1ccccc1 [propylbenzene] + CCCC[P+](CCCC)(CCCC)CCCC.O=S(=O)([N-]S(=O)(=O)C(F)(F)F)C(F)(F)F | 1.88 ± 0.13 | 1.93 ± 0.13 | 1.98 ± 0.13 | 2.03 ± 0.14 | 2.07 ± 0.14 | 2.12 ± 0.14
C=Cc1ccccc1 [styrene] + CCCC[P+](CCCC)(CCCC)CCCC.O=S(=O)([N-]S(=O)(=O)C(F)(F)F)C(F)(F)F | 1.01 ± 0.06 | 1.05 ± 0.07 | 1.1 ± 0.07 | 1.14 ± 0.07 | 1.18 ± 0.08 | 1.23 ± 0.08
C1CCOC1 [tetrahydrofuran] + CCCC[P+](CCCC)(CCCC)CCCC.O=S(=O)([N-]S(=O)(=O)C(F)(F)F)C(F)(F)F | 0.622 ± 0.043 | 0.653 ± 0.045 | 0.682 ± 0.046 | 0.712 ± 0.047 | 0.742 ± 0.049 | 0.772 ± 0.05
c1ccsc1 [thiophene] + CCCC[P+](CCCC)(CCCC)CCCC.O=S(=O)([N-]S(=O)(=O)C(F)(F)F)C(F)(F)F | 0.782 ± 0.051 | 0.812 ± 0.053 | 0.842 ± 0.054 | 0.872 ± 0.056 | 0.9 ± 0.057 | 0.929 ± 0.059
